“And” between values parts separate entries of the source, which are not always exact repeats. Equal entries are not always repeated. Each block holds one molecule with its values, some of them ahead of it.
Test system: 186277-243-T-J2-PDC complex spheroids, viability
Test: Anticancer human tumor 186277-243-T-J2-PDC patient-derived colon adenocarcinoma cell line growth inhibition [RAS]
Conditions: for viability, T/C: stronger effect = lower value; for IC50: curve of first compound
Method in brief: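 Multi-cell-type spheroids: tumor cells plus HUVEC endothelial cells and mesenchymal stem cells. RAS-pathway inhibitors were combined with targeted agents, each dosed in half-log steps down from clinical Cmax, or from 10 microM when Cmax was unknown.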
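Also: spheroids exposed to compounds for 7 days before viability read.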

SMILES: CCc1c2c(nc3ccc(O)cc13)-c1cc3c(c(=O)n1C2)COC(=O)[C@]3(O)CC
- viability, T/C (compound 0.00949 µM): 71.8% [middle of 4 runs]
- viability, T/C (compound 0.03 µM): 47.5% [middle of 4 runs]
- viability, T/C (compound 0.0949 µM): 18.6% [middle of 4 runs]
- viability, T/C (compound 0.3 µM): 15.9% [middle of 4 runs]

SMILES: CC(C)n1nc(-c2ccc3oc(N)nc3c2)c2c(N)ncnc21
- viability, T/C (compound 0.000316 µM): 107% [middle of 4 runs]
- viability, T/C (compound 0.001 µM): 96.7% [middle of 4 runs]
- viability, T/C (compound 0.00316 µM): 101% and 98% and 107% (2×)
- viability, T/C (compound 0.01 µM): 92.9% [middle of 4 runs]
- viability, T/C (compound 0.1 µM): 47.7% [middle of 4 runs]

- IC50 (second compound 0.00316 µM): > 10000 nM
- IC50 (second compound 0.01 µM): > 10000 nM
- IC50 (second compound 0.0316 µM): > 10000 nM
- IC50 (second compound 0.1 µM): > 10000 nM
- IC50 (second compound 0.316 µM): > 10000 nM
- IC50 (second compound 1 µM): > 10000 nM
SMILES: Cc1nc(N2CCC3(CC2)COC(C)C3N)c(CO)nc1Sc1ccnc(N)c1Cl (stereo not drawn) + C=CC(=O)N1CCN(c2nc(OCC3CCCN3C)nc3c(F)c(-c4nc(N)cc(C)c4C(F)(F)F)c(Cl)cc23)C(C)C1
- viability, T/C (second compound 0.00316 µM, first compound 0.0316 µM): 102%
- viability, T/C (second compound 0.00316 µM, first compound 0.1 µM): 102%
- viability, T/C (second compound 0.00316 µM, first compound 0.316 µM): 127%
- viability, T/C (second compound 0.00316 µM, first compound 1 µM): 108%
- viability, T/C (second compound 0.00316 µM, first compound 3.16 µM): 116%
- viability, T/C (second compound 0.00316 µM, first compound 10 µM): 78.9%
- viability, T/C (second compound 0.01 µM, first compound 0.0316 µM): 99.8%
- viability, T/C (second compound 0.01 µM, first compound 0.1 µM): 101%
- viability, T/C (second compound 0.01 µM, first compound 0.316 µM): 94.4%
- viability, T/C (second compound 0.01 µM, first compound 1 µM): 85.2%
- viability, T/C (second compound 0.01 µM, first compound 3.16 µM): 89.2%
- viability, T/C (second compound 0.01 µM, first compound 10 µM): 78.7%
- viability, T/C (second compound 0.0316 µM, first compound 0.0316 µM): 86.8%
- viability, T/C (second compound 0.0316 µM, first compound 0.1 µM): 103%
- viability, T/C (second compound 0.0316 µM, first compound 0.316 µM): 113%
- viability, T/C (second compound 0.0316 µM, first compound 1 µM): 117%
- viability, T/C (second compound 0.0316 µM, first compound 3.16 µM): 83.2%
- viability, T/C (second compound 0.0316 µM, first compound 10 µM): 80.4%
- viability, T/C (second compound 0.1 µM, first compound 0.0316 µM): 94%
- viability, T/C (second compound 0.1 µM, first compound 0.1 µM): 86.6%
- viability, T/C (second compound 0.1 µM, first compound 0.316 µM): 91.6%
- viability, T/C (second compound 0.1 µM, first compound 1 µM): 104%
- viability, T/C (second compound 0.1 µM, first compound 3.16 µM): 87.7%
- viability, T/C (second compound 0.1 µM, first compound 10 µM): 87.9%
- viability, T/C (second compound 0.316 µM, first compound 0.0316 µM): 90.6%
- viability, T/C (second compound 0.316 µM, first compound 0.1 µM): 93.3%
- viability, T/C (second compound 0.316 µM, first compound 0.316 µM): 104%
- viability, T/C (second compound 0.316 µM, first compound 1 µM): 115%
- viability, T/C (second compound 0.316 µM, first compound 3.16 µM): 95.7%
- viability, T/C (second compound 0.316 µM, first compound 10 µM): 75.8%
- viability, T/C (second compound 1 µM, first compound 0.0316 µM): 103%
- viability, T/C (second compound 1 µM, first compound 0.1 µM): 100%
- viability, T/C (second compound 1 µM, first compound 0.316 µM): 91.8%
- viability, T/C (second compound 1 µM, first compound 1 µM): 99.1%
- viability, T/C (second compound 1 µM, first compound 3.16 µM): 92.6%
- viability, T/C (second compound 1 µM, first compound 10 µM): 83.8%

- IC50 (second compound 0.000949 µM): > 1000 nM
- IC50 (second compound 0.003 µM): 357 nM
- IC50 (second compound 0.00949 µM): 3.65 nM
- IC50 (second compound 0.03 µM): < 3.16 nM
- IC50 (second compound 0.0949 µM): < 3.16 nM
- IC50 (second compound 0.3 µM): < 3.16 nM
SMILES: CCN1CCN(Cc2ccc(Nc3ncc(F)c(-c4cc(F)c5nc(C)n(C(C)C)c5c4)n3)nc2)CC1 + CCn1c(-c2cc(N3CCN(C)CC3)cnc2C(C)OC)c2c3cc(ccc31)-c1csc(n1)CC(NC(=O)C1CC1C)C(=O)N1CCCC(N1)C(=O)OCC(C)(C)C2
- viability, T/C (second compound 0.000949 µM, first compound 0.00316 µM): 102%
- viability, T/C (second compound 0.000949 µM, first compound 0.01 µM): 121%
- viability, T/C (second compound 0.000949 µM, first compound 0.0316 µM): 140%
- viability, T/C (second compound 0.000949 µM, first compound 0.1 µM): 149%
- viability, T/C (second compound 0.000949 µM, first compound 0.316 µM): 121%
- viability, T/C (second compound 0.000949 µM, first compound 1 µM): 76.6%
- viability, T/C (second compound 0.003 µM, first compound 0.00316 µM): 105%
- viability, T/C (second compound 0.003 µM, first compound 0.01 µM): 111%
- viability, T/C (second compound 0.003 µM, first compound 0.0316 µM): 107%
- viability, T/C (second compound 0.003 µM, first compound 0.1 µM): 86.1%
- viability, T/C (second compound 0.003 µM, first compound 0.316 µM): 53%
- viability, T/C (second compound 0.003 µM, first compound 1 µM): 32%
- viability, T/C (second compound 0.00949 µM, first compound 0.00316 µM): 50.8%
- viability, T/C (second compound 0.00949 µM, first compound 0.01 µM): 43.8%
- viability, T/C (second compound 0.00949 µM, first compound 0.0316 µM): 32.7%
- viability, T/C (second compound 0.00949 µM, first compound 0.1 µM): 22.1%
- viability, T/C (second compound 0.00949 µM, first compound 0.316 µM): 16.8%
- viability, T/C (second compound 0.00949 µM, first compound 1 µM): 12.3%
- viability, T/C (second compound 0.03 µM, first compound 0.00316 µM): 14.5%
- viability, T/C (second compound 0.03 µM, first compound 0.01 µM): 13.7%
- viability, T/C (second compound 0.03 µM, first compound 0.0316 µM): 11.9%
- viability, T/C (second compound 0.03 µM, first compound 0.1 µM): 9.88%
- viability, T/C (second compound 0.03 µM, first compound 0.316 µM): 9.46%
- viability, T/C (second compound 0.03 µM, first compound 1 µM): 8.2%
- viability, T/C (second compound 0.0949 µM, first compound 0.00316 µM): 7.73%
- viability, T/C (second compound 0.0949 µM, first compound 0.01 µM): 7.37%
- viability, T/C (second compound 0.0949 µM, first compound 0.0316 µM): 6.72%
- viability, T/C (second compound 0.0949 µM, first compound 0.1 µM): 6.74%
- viability, T/C (second compound 0.0949 µM, first compound 0.316 µM): 7.64%
- viability, T/C (second compound 0.0949 µM, first compound 1 µM): 7%
- viability, T/C (second compound 0.3 µM, first compound 0.00316 µM): 6.2%
- viability, T/C (second compound 0.3 µM, first compound 0.01 µM): 5.86%
- viability, T/C (second compound 0.3 µM, first compound 0.0316 µM): 6.14%
- viability, T/C (second compound 0.3 µM, first compound 0.1 µM): 6.13%
- viability, T/C (second compound 0.3 µM, first compound 0.316 µM): 6.52%
- viability, T/C (second compound 0.3 µM, first compound 1 µM): 6.25%

— PubChem BioAssay AID2060908 (Molecular Pharmacology Branch, DTP, NCI, 2025)
